From the supplement of paper PMC10307832

Key:
Test in all cases: relative viability (nuclei count vs DMSO), 5 days (fraction); higher = more cells survive
Ponatinib + Decitabine = compound: Cc1ccc(C(=O)Nc2ccc(CN3CCN(C)CC3)c(C(F)(F)F)c2)cc1C#Cc1cnc2cccnn12 [Ponatinib] + Nc1ncn([C@H]2C[C@H](O)[C@@H](CO)O2)c(=O)n1 [Decitabine] (partner 2 µM)
Method in brief: (§1)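 Relative viability was taken as the ratio of nuclei in treated wells to nuclei in vehicle wells. Lung cancer cell lines in 1536-well plates received compounds by pin tool one day after seeding, either one drug alone or a fixed anchor-drug dose plus five library-drug doses (not always all listed) in √10 steps. Nuclei were counted on 4× images after 5 days of treatment, and values are medians of duplicate plates.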

Ponatinib + Bortezomib = compound: Cc1ccc(C(=O)Nc2ccc(CN3CCN(C)CC3)c(C(F)(F)F)c2)cc1C#Cc1cnc2cccnn12 [Ponatinib] + CC(C)C[C@H](NC(=O)[C@H](Cc1ccccc1)NC(=O)c1cnccn1)B(O)O [Bortezomib] (partner 0.002 µM)
Method in brief: as §1

Pazopanib + Luminespib = compound: Cc1ccc(Nc2nccc(N(C)c3ccc4c(C)n(C)nc4c3)n2)cc1S(N)(=O)=O [Pazopanib] + CCNC(=O)c1noc(-c2cc(C(C)C)c(O)cc2O)c1-c1ccc(CN2CCOCC2)cc1 [Luminespib] (partner 0.01 µM)
Method in brief: as §1

Pazopanib + Dasatinib = compound: Cc1ccc(Nc2nccc(N(C)c3ccc4c(C)n(C)nc4c3)n2)cc1S(N)(=O)=O [Pazopanib] + Cc1nc(Nc2ncc(C(=O)Nc3c(C)cccc3Cl)s2)cc(N2CCN(CCO)CC2)n1 [Dasatinib] (partner 0.075 µM)
Method in brief: as §1

Cell Line | relative viability (Ponatinib + Decitabine; first compound 0.002 µM) | relative viability (Ponatinib + Decitabine; first compound 0.006325 µM) | relative viability (Ponatinib + Decitabine; first compound 0.06325 µM) | relative viability (Ponatinib + Decitabine; first compound 0.2 µM) | relative viability (Ponatinib + Bortezomib; first compound 0.002 µM) | relative viability (Ponatinib + Bortezomib; first compound 0.006325 µM) | relative viability (Ponatinib + Bortezomib; first compound 0.06325 µM) | relative viability (Ponatinib + Bortezomib; first compound 0.2 µM) | relative viability (Pazopanib + Luminespib; first compound 0.01 µM) | relative viability (Pazopanib + Luminespib; first compound 0.03162 µM) | relative viability (Pazopanib + Luminespib; first compound 0.1 µM) | relative viability (Pazopanib + Luminespib; first compound 0.3162 µM) | relative viability (Pazopanib + Luminespib; first compound 1 µM) | relative viability (Pazopanib + Dasatinib; first compound 0.01 µM) | relative viability (Pazopanib + Dasatinib; first compound 0.03162 µM) | relative viability (Pazopanib + Dasatinib; first compound 0.1 µM) | relative viability (Pazopanib + Dasatinib; first compound 0.3162 µM) | relative viability (Pazopanib + Dasatinib; first compound 1 µM)
201T | 0.849 | 0.862 | 0.914 | 0.811 | 1.06 | 1.11 | 1.13 | 1.08 | 0.996 | 1.1 | 1.07 | 1.06 | 1.08 | 0.526 | 0.424 | 0.568 | 0.545 | 0.666
A549 | 0.238 | 0.294 | 0.324 | 0.295 |  |  |  |  |  |  |  |  |  |  |  |  |  | 
A-427 | 0.547 | 0.507 | 0.592 | 0.49 | 0.889 | 0.976 | 1.02 | 0.905 | 1.08 | 1.18 | 0.786 | 1.02 | 1.19 | 0.652 | 0.72 | 0.614 | 0.694 | 0.701
ABC-1 | 1 | 1.03 | 1.16 | 0.91 | 0.347 | 0.286 | 0.299 | 0.283 | 0.627 | 0.672 |  | 0.41 | 0.961 | 0.481 | 0.635 |  | 0.551 | 0.637
BEN | 0.723 | 0.687 | 0.699 | 0.656 | 0.643 | 0.843 | 0.85 | 0.672 |  | 0.328 | 0.246 | 0.364 | 0.352 |  | 0.343 | 0.267 | 0.318 | 0.38
CAL-12T |  |  |  |  | 0.634 | 0.9 | 1.39 | 1.09 | 0.434 | 0.321 | 0.974 | 0.426 | 0.783 | 0.308 | 0.412 | 0.312 | 0.458 | 0.462
COR-L23 | 0.391 | 0.427 | 0.504 | 0.424 | 0.862 | 0.875 | 0.818 | 0.8 | 0.644 | 0.791 | 0.72 | 0.654 | 0.785 | 0.512 | 0.503 | 0.553 | 0.449 | 0.56
COR-L 105 | 0.671 | 0.674 | 0.821 | 0.61 | 0.819 | 0.787 | 1.01 | 0.999 | 1.06 | 0.539 | 0.765 | 0.909 | 0.787 | 0.351 | 0.296 | 0.327 | 0.453 | 0.406
Calu-6 |  |  |  |  | 1.01 | 1.11 | 0.953 | 0.856 |  |  |  |  |  |  |  |  |  | 
ChaGo-K-1 | 0.517 | 0.507 | 0.54 | 0.512 | 0.786 | 1.01 | 1.14 | 0.968 | 0.632 | 0.595 | 0.586 | 0.492 | 0.574 | 0.554 | 0.622 | 0.591 | 0.515 | 0.7
EBC-1 |  |  |  |  | 0.543 | 0.585 | 0.65 | 0.534 |  |  |  |  |  |  |  |  |  | 
EKVX | 0.329 | 0.366 | 0.378 | 0.357 | 1.01 | 1.11 | 1.13 | 1.02 | 0.987 | 0.763 | 0.728 | 0.873 | 0.857 | 0.63 | 0.53 | 0.54 | 0.592 | 0.601
EMC-BAC-2 | 0.927 | 0.899 | 1.04 | 0.842 | 0.967 | 1.02 | 1.06 | 1.04 |  | 1.2 | 1.16 | 1.14 | 1.25 |  | 0.381 | 0.308 | 0.305 | 0.312
EPLC-272H | 0.334 | 0.399 | 0.416 | 0.326 | 0.76 | 0.894 | 0.856 | 0.88 |  | 0.281 | 0.366 | 0.344 | 0.52 |  | 0.321 | 0.369 | 0.376 | 0.251
H3255 | 0.566 | 0.512 | 0.717 | 0.552 | 0.659 | 0.792 | 0.806 | 0.76 | 0.854 | 0.883 | 0.869 | 0.8 | 0.982 | 0.349 | 0.397 | 0.295 | 0.286 | 0.454
HARA | 0.486 | 0.632 | 0.568 | 0.665 | 1.06 | 1.1 | 1.21 | 0.861 | 0.548 | 0.704 | 1.09 | 0.76 | 0.839 | 0.23 | 0.341 | 0.241 | 0.248 | 0.337
HCC-15 | 0.666 | 0.671 | 0.744 | 0.634 | 0.919 | 1.04 | 1.16 | 1 | 0.146 | 0.242 | 0.366 | 0.2 | 0.498 | 0.543 | 0.631 | 0.612 | 0.67 | 0.692
